Results published in patent US8557290B2, “Multifunction nanoconjugates for imaging applications and targeted treatment” (priority 2008, dated 2013).

What was measured:
in vitro = settings: rat
MCF-7 cells [1] = assay: Intracellular localization by confocal fluorescent microscopy; settings: 1 hour treatment
[2] = test system: plasmid DNA (pKaede-MN1 plasmid with R18 insert); assay: Light-induced plasmid DNA cleavage, agarose gel electrophoresis; format: biochemical
Description: Reactions containing plasmid DNA and either buffer, alizarin red s, TiO2 nanoparticles, or alizarin red s-coated TiO2 nanoparticles were incubated at 37° C. for 10 minutes and either kept in the dark or illuminated with a 75 watt halogen bulb for 5-10 minutes (FIG. 36). Samples were then run via electrophoresis at 50 volts for 4 hours on a 1.25% agarose gel and scanned on a Typhoon Trio multi-mode imager to visualize the different resulting configurations of plasmid DNA (FIG. 36). […] To confirm the identities of plasmid configurations resulting from excitation of alizarin red s-coated TiO2 nanoparticles, supercoiled, nicked, and linearized plasmid DNA bands were excised and purified from the agarose gel.
The role of the latter was investigated by expanding upon previous experiments and using TiO2 nanoparticles that were coated with glycidyl isopropyl ether (GIE), which reduces interaction between the nanoparticle surface and its surrounding environment (Paunesku et al Nat. Mater. 2003, 2, 343-346; Rajh et al Nano Lett. 2004, 4, 1017-1023). Plasmid samples containing either GIE, GIE and alizarin red s, or GIE-alizarin red s-coated TiO2 nanoparticles were illuminated for 5 minutes with 150W halogen bulb (FIG. 39).
The effect of conjugating different peptide nucleic acid sequences to GIE-alizarin-coated TiO2 nanoparticles on DNA cleavage was investigated (FIG. 40A).

PC-3M cells = settings: human, 24 h, 20 mM
Description: All cell culture reagents were purchased from Mediatech Inc. unless otherwise specified. […] Both cell lines were maintained at 37° C. with 5% CO2 in RPMI 1640 media supplemented with fetal bovine serum (10%), L-glutamine (2 mM), HEPES (10 mM), penicillin (100 I.U./ml), streptomycin (100 μg/ml). […] PC-3M cells were further supplemented with G418 sulfate (0.15 mg/ml). For treatment, cells were washed with phosphate buffered saline solution (PBS) and placed in serum free RPMI 1640 for 1-2 hours. Then cells were treated with TiO2 nanoparticles (333 nM) coated with or without ARS (60 μM), and/or ODN (160 μM) for one hour. […]
After treatment and washing, cells were trypsinized, collected in FBS supplemented medium, and brought to a single cell suspension. […] Samples were then taken to the Northwestern University Flow Cytometry Core Facility of the Robert H. Lurie Cancer Center to be analyzed or sorted on the DakoCytomation MoFlo Flow Cytometer (Dako). […]
Labeling the nanoparticles, however, allowed one to screen the treated cells simultaneously for nanoparticle uptake (by ARS fluorescence) and for viability (by use of fluorescent cell-impermeable dye). […] Flow cytometry was then used to quantify both the extent of nanoparticle uptake within the cell population, and the cells' ability to exclude cell-impermeable DAPI as an indicator of cell viability.

MCF-7 cells [3] = assay: Intracellular Gd by ICP-MS of agarose phantoms with embedded cells; format: cell-based, human; settings: 48 hours after transfection
Description: Sections of agarose phantoms with embedded cells were analyzed by ICP-MS.

[4] = test system: MCF-7/WS8 breast cancer cells; assay: MRI T1 and signal intensity of MCF-7 cells transfected with SuperFect reagent, in agarose phantoms; format: cell-based, human; settings: for T1 value, Equation method / T1 value, Null point method / Signal intensity: SuperFect; for T1 value, Equation method / T1 value, Null point method: 48 hours after treatment, 1.5 T; for Signal intensity: T1-weighted
Description: For transfection experiments MCF-7/W8/WS8 breast cancer cells (American Type Culture Collection, ATCC, Manassas, Va.) and PC3-M prostate cancer cells (ATCC) were grown in a 5% CO2 humidified atmosphere in RPMI1640 cell culture medium (this and all other standard cell culture supplements were from Invitrogen/Gibco, Carlsbad, Calif.) supplemented with 10% fetal bovine serum and antibiotic-antimycotic. MCF-7/WS8 medium also contained insulin at a concentration of 10 μg/mL (Sigma, St. Louis, Mo.), 200 mM 1-glutamine, and 10 mM nonessential amino acids; PC3-M medium also contained 25 μg/mL G418 and 2.4 mg/mL HEPES. Nearly confluent cells were serum-starved for 16 to 20 hours before transfection or treatment.
For SuperFect transfection, 60 μL of SuperFect reagent (Qiagen, Valencia, Calif.) and 300 μL of any one of the following: (1) Gd contrast agent, (2) TiO2 nanoparticles, or (3) TiO2-DNA-Gd nanoconjugates were used; these mixtures were applied onto 16 million cells each. Final concentrations of these agents in the medium were (1) 144 μM Gd; (2) 0.12 μM TiO2 nanoparticles, or (3) TiO2-DNA-Gd nanoconjugates wherein TiO2 nanoparticles were 0.12 μM and Gd was 75.6 μM in concentration. Media were exchanged for fresh complete cell media 24 hours later and, after an additional 24-hour incubation, cells were harvested for imaging.
In all cases, cells harvested for MRI were embedded in 300 μL agarose phantoms. Once the MRI was completed, these phantoms were used for ICP-MS and/or preparation of paraffin-embedded samples for sectioning and imaging by x-ray fluorescence microscopy.
To prepare samples for MRI, 150 μL of Hank's balanced buffered salt solution (HBBS; Invitrogen/Gibco) containing cells were mixed with 2% agarose melted in 150 μL of HBBS. Cells in agarose solidified as a plug and were transferred into tubes, placed in a water bath, and imaged using a 1.5 T Siemens Sonata system (Erlangen, Germany) with a four-channel head coil for signal reception and body coil for excitation. T 1 of each sample was measured using an inversion recovery sequence with repetition time (TR)=4000 ms and inversion times of 50, 200, 500, 800, 1000, 1200, 1500, and 2000 ms. Other scan parameters were: field of view=125×200 mm^2; acquisition matrix=115×192; readout bandwidth=965 Hz/pixel; slice thickness=5 mm; all images were acquired in the coronal orientation.
For data analysis the raw data of signal intensity versus TI were fit to the equation: Signal intensity=abs(A*(1−2*exp(−R1*TI))+C, where R1=1/T1. Variables A and C are free parameters of the model. The confidence interval was determined statistically; R2 indicates goodness of fit. The TI corresponding to the lowest signal intensity (TInull) is an indication of the T1 value; this relationship can be estimated by the equation: T1=TInull/ln(2). T1 values determined using the results of the equation fit and the null point relationship are listed in Table 2. Signal intensity, a quantitative metric of relative brightness, was measured with a circular region-of-interest within each sample.

## COc1cccc2c1C(=O)c1c(O)c3c(c(O)c1C2=O)C[C@@](O)(C(=O)CO)C[C@@H]3O[C@H]1C[C@H](N)[C@H](O)[C@H](C)O1 [free doxorubicin, Doxorubicin]
In vitro
  viability at 4 days, 1.72 μM: 79.6%
MCF-7 cells [1]
  subcellular localization: predominantly located in the cell nucleus

## O=C1c2ccccc2C(=O)c2c1cc(S(=O)(=O)O)c(O)c2O [ARS, 1,2 dihydroxyanthraquinone-3-sulfonate]
[2]; 75 watt halogen bulb, 5-10 minutes
  plasmid DNA cleavage upon light exposure: increase in the presence of nicked plasmid

## OO [H2O2, hydrogen peroxide]
PC-3M cells
  reduction in viability: approximately 54%

## PGA-1,6-hexanediamine-(Gd-DOTA)-dopamine conjugate
MCF-7 cells [3]; 5×10^6 cells, ICP-MS
  intracellular concentration of Gd (average): 0.75 µM
MCF-7 cells [3]
  Gd retention relative to Gd in cell media: 0.5%
[4]; 5 × 10^5 cells
  T1 value, Equation method: 1799
  T1 value, Null point method: 1436
[4]; 5 × 10^5 cells, inversion time 1000 ms
  Signal intensity: 33
[4]; 5 × 10^6 cells
  T1 value, Equation method: 1625
  T1 value, Null point method: 1235
[4]; 5 × 10^6 cells, inversion time 1000 ms
  Signal intensity: 71
[4]; T1-weighted images, inversion time 1000 ms, 24 or 48 hours after treatment
  T1-weighted signal enhancement of treated cells: no T1-weighted enhancement

## CC(C)OCC1CO1 (centres unmarked) [GIE, glycidyl isopropyl ether]
[2]; 150W halogen bulb, 5 minutes, three replicate experiments
  plasmid DNA cleavage upon light exposure: not cleaved
